Assay results as given in PMC5732813, “Novel piplartine-containing ruthenium complexes: synthesis, cell growth inhibition, apoptosis induction and ROS production on HCT116 cells” (Oncotarget, 2017).
Where “and” joins values, the source holds several entries; their conditions need not be identical. Identical values can stand only once. Like-named read-outs stand apart in the source and are kept apart here.

Key:
[1] = test system: HCT116 (human colon carcinoma); experiment: Cytotoxic activity, alamar blue assay, HCT116; format: cell-based
Excerpt: (§1) HCT116 (human colon carcinoma), HepG2 (human hepatocellular carcinoma), HSC-3 (human oral squamous cell carcinoma), SCC-4 (human oral squamous cell carcinoma), SCC-9 (human oral squamous cell carcinoma), HL-60 (human promyelocytic leukemia), K-562 (human chronic myelogenous leukemia), B16-F10 (murine melanoma), MRC-5 (human lung fibroblast), WT SV40 MEF (wild-type immortalized mouse embryonic fibroblast) and BAD KO SV40 MEF (BAD gene knockout immortalized mouse embryonic fibroblast) cell lines were obtained from the American Type Culture Collection (ATCC, Manassas, VA, USA) and cultured in RPMI-1640 medium (Gibco-BRL, Gaithersburg, MD, USA) with 10% fetal bovine serum (Life, Carlsbad, CA, USA), 2 mM L-glutamine (Vetec Química Fina, Duque de Caxias, RJ, Brazil) and 50 μg/mL gentamycin (Life, Carlsbad, CA, USA). Adherent cells were collected by treatment with 0.25% trypsin EDTA solution (Gibco-BRL, Gaithersburg, MD, USA). All cell lines were cultured in flasks at 37°C in 5% CO2 and sub-cultured every 3-4 days to maintain exponential growth.
(§2) Cell viability was quantified using the alamar blue assay, according to Ahmed et al.. Cells were inserted in 96-well plates for all experiments (7 x 10^4 cells/mL for adherent cells or 3 x 10^5 cells/mL for suspended cells in 100 μL of medium). […] Negative controls received the vehicle that was used for diluting the compounds tested.

[2] = test system: HL-60 (human promyelocytic leukemia); experiment: Cytotoxic activity, alamar blue assay, HL-60; format: cell-based
Excerpt: as §1, §2

HCT116 cells [3] = experiment: Gene expression analysis by qPCR array (TaqMan Array Human Molecular Mechanisms of Cancer); format: cell-based; conditions: HCT116, 12 h; DOX 1 μM, PL 10 μM, 1 2.5 μM, 2 5 μM; negative control RQ = 1.0
Description: HCT116 cells were plated in bottles tissue culture (7x10^4 cells/mL). After 12h of incubation with the complexes, total RNA was isolated from the cells using the RNeasy Plus mini kit (Qiagen, Hilden, Germany) according to the manufacturer’s instructions. The RNA was evaluated by fluorimetry (QuBit™, Life Technologies, Camarillo, CA, EUA). RNA reverse transcription was performed using Superscript VILO™ (Invitrogen Corporation, Waltham, MA, USA). A 96-well plate TaqMan® Array Human Molecular Mechanisms of Cancer (ID 4418806, Applied Biosystems™, Foster City, CA, EUA) was used for the gene expression study by qPCR. The reactions were conducted in the ABI ViiA7 (Applied Biosystems™, Foster City, CA, EUA). The cycle conditions comprised 2 min at 50 °C, 20 s at 95 °C, then 40 cycles of 3 s at 95 °C and 30 s at 60 °C. […] The GAPDH, 18S and HPRT1 genes were used for normalization. All experiments were performed in DNase/RNase free conditions.

HCT116 cells [4] = conditions: trypan blue
Description: In all experiments, 2 mL of a HCT116 cell solution (7 x 10^4 cells/mL) was inserted in 24-well plates and incubated overnight to allow the cells to adhere to the plate surface. […] The negative control was treated with the vehicle (0.1% of a solution containing 70% sorbitol, 25% tween 80 and 5% water) used for diluting the compounds tested. […] Cell viability was assessed using trypan blue exclusion assay for all experiments.

## [Ru(piplartine)(dppf)(bipy)](PF6)2 [Complex 1]
[1]; HCT116, IC50 72h
  more potent than metal-free piplartine: 4 fold
[1]; SI = IC50[MRC-5]/IC50[HCT116]
  Selectivity index (SI): 2.0
[1]; SI = IC50[PBMC]/IC50[HCT116]
  Selectivity index (SI): 1.1
[2]; HL-60, IC50 72h
  more potent than metal-free piplartine: 4 fold
[2]; SI = IC50[MRC-5]/IC50[HL-60]
  Selectivity index (SI): 1.0
[2]; SI = IC50[PBMC]/IC50[HL-60]
  Selectivity index (SI): 0.5
HCT116 cells [3]
  RQ ABL1: 1.302
  RQ AKT1: 1.469
  RQ AKT2: 1.663
  RQ APC: 0.972
  RQ BAX: 1.572
  RQ BCAR1: 1.687
  RQ BCL2: 2.4 and 2.367
  RQ BCL2L1: 1.936
  RQ BCL2L11: 1.710
  RQ BID: 0.743
  RQ BRAF: 1.072
  RQ CASP8: 1.583
  RQ CCND1: 1.2 and 1.153
  RQ CCND3: 1.447
  RQ CCNE1: 1.075
  RQ CDC42: 1.755
  RQ CDH1: 3.7 and 3.659
  RQ CDK2: 1.467
  RQ CDK4: 1.390
  RQ CDKN1A: 1.331
  RQ CDKN1B: 1.039
  RQ CDKN2A: 2.5 and 2.469
  RQ CRK: 1.184
  RQ CTNNB1: 1.131
  RQ CYCS: 2.0 and 1.961
  RQ DVL1: 1.576
  RQ E2F1: 1.631
  RQ EGFR: 1.3 and 1.294
  RQ ELK1: 1.275
  RQ ERBB2: 1.941
  RQ FADD: 0.6 and 0.556
  RQ FAS: 1.496
  RQ FGF2: 1.120
  RQ FN1: 3.8 and 3.841
  RQ FOS: 11.9 and 11.943
  RQ FYN: 2.5 and 2.474
  RQ FZD1: 2.3 and 2.253
  RQ GRB2: 0.961
  RQ GSK3B: 1.191
  RQ GUSB: 4.5
  RQ HRAS: 0.777
  RQ IGF1R: 2.3 and 2.283
  RQ ITGA2B: 3.1 and 3.092
  RQ ITGAV: 1.4 and 1.426
  RQ ITGB1: 0.838
  RQ JUN: 3.7 and 3.708
  RQ KDR: 4.4 and 4.404
  RQ KRAS: 0.886
  RQ MAP2K1: 0.8 and 0.822
  RQ MAP3K5: 0.3 and 0.308
  RQ MAPK1: 1.305
  RQ MAPK3: 2.0 and 2.014
  RQ MAPK8: 1.411
  RQ MAPK14: 1.008
  RQ MAX: 3.6 and 3.614
  RQ MDM2: 0.794
  RQ MYC: 1.065
  RQ NFKB1: 1.288
  RQ NFKB2: 1.340
  RQ NFKBIA: 2.0 and 2.007
  RQ NRAS: 1.178
  RQ PIK3CA: 0.880
  RQ PIK3R1: 2.5 and 2.456
  RQ PTEN: 2.0 and 2.037
  RQ PTK2: 1.6 and 1.561
  RQ PTK2B: 2.3 and 2.270
  RQ RAC1: 1.1 and 1.059
  RQ RAF1: 2.0 and 1.951
  RQ RB1: 1.003
  RQ RELA: 1.390
  RQ RHOA: 1.129
  RQ SHC1: 0.4 and 0.436
  RQ SMAD4: 1.4 and 1.409
  RQ SOS1: 1.2 and 1.161
  RQ SPP1: 2.5
  RQ SRC: 1.584
  RQ TGFB1: 0.911
  RQ TGFBR1: 1.324
  RQ TGFBR2: 2.4 and 2.358
  RQ TP53: 3.5 and 3.478
  RQ VEGFA: 1.664
HCT116 cells [4]; HCT116, 1.25 μM, 24 h
  reduced the number of viable cells: 40.2%
HCT116 cells [4]; HCT116, 1.25 μM, 48 h
  reduced the number of viable cells: 61.5%
HCT116 cells [4]; HCT116, 2.5 μM, 24 h
  reduced the number of viable cells: 65.4%
HCT116 cells [4]; HCT116, 2.5 μM, 48 h
  reduced the number of viable cells: 77.1%
